The values below come from ChEMBL document CHEMBL3045544, “Synthesis, antimicrobial and antioxidant activities of some new indole derivatives containing pyridopyrimidine and pyrazolopyridine moieties” (Med Chem Res, 2013).

The test system of one data set is Pseudomonas aeruginosa. The data set can be described thus: Antimicrobial activity against Pseudomonas aeruginosa MTCC 1688 assessed as diameter of growth inhibition zone at 500 ug/ml after 24 hr by cup-plate method. The data set is classed as functional. As to conditions: MTCC 1688, 24 h, read-out: DIZ; call rule not given here.
Another data set deals with Aspergillus terreus. Kind of data set: Antimicrobial activity against Aspergillus terreus MTCC 1782 assessed as diameter of growth inhibition zone at 500 ug/ml after 72 hr by cup-plate method. The class given is functional. As to conditions: MTCC 1782, 72 h, read-out: DIZ.
A further data set concerns Aspergillus oryzae. The data set can be described thus: Antimicrobial activity against Aspergillus oryzae MTCC 3567 assessed as diameter of growth inhibition zone at 500 ug/ml after 72 hr by cup-plate method. The class given is functional. As to conditions: MTCC 3567, 72 h, read-out: DIZ.
The test system of another data set is Aspergillus niger. Kind of data set: Antimicrobial activity against Aspergillus niger MTCC 281 assessed as diameter of growth inhibition zone at 500 ug/ml after 72 hr by cup-plate method. As to conditions: MTCC 281, 72 h, read-out: DIZ. The data set is classed as functional.
A further data set concerns Escherichia coli. Kind of data set: Antimicrobial activity against Escherichia coli MTCC 723 assessed as diameter of growth inhibition zone at 500 ug/ml after 24 hr by cup-plate method. The data set is classed as functional. As to conditions: MTCC 723, 24 h, read-out: DIZ.
In another data set the test system is Aspergillus flavus. The data set can be described thus: Antimicrobial activity against Aspergillus flavus MTCC 1973 assessed as diameter of growth inhibition zone at 500 ug/ml after 72 hr by cup-plate method. The data set is classed as functional. As to conditions: MTCC 1973, 72 h, read-out: DIZ.
Another data set deals with Klebsiella pneumoniae. The data set can be described thus: Antimicrobial activity against Klebsiella pneumoniae NCTC 13368 assessed as diameter of growth inhibition zone at 500 ug/ml after 24 hr by cup-plate method. The class given is functional. As to conditions: NCTC 13368, 24 h, read-out: DIZ.
The test system of another data set is Staphylococcus aureus. Kind of data set: Antimicrobial activity against Staphylococcus aureus ATCC 29513 assessed as diameter of growth inhibition zone at 500 ug/ml after 24 hr by cup-plate method. The class given is functional. As to conditions: ATCC 29513, 24 h, read-out: DIZ.
The test system of data set [1] is Radical scavenging activity. Kind of data set: Antioxidant activity assessed as DPPH radical scavenging activity at 25 ug/ml by spectrophotometric analysis. The data set is classed as functional.
Data set [2] relates to Radical scavenging activity. Kind of data set: Antioxidant activity assessed as DPPH radical scavenging activity at 75 ug/ml by spectrophotometric analysis. The class given is functional. In general terms: DPPH is a stable violet radical that fades when it is reduced.
A short description of data set [3]: Metal chelating activity of the compound assessed as inhibition of ferrozine Fe2+ complex formation at 25 to 100 ug/ml after 10 min by spectrophotometric analysis. The data set is classed as physicochemical.
Data set [4] has as its system Radical scavenging activity. Kind of data set: Antioxidant activity assessed as DPPH radical scavenging activity at 50 ug/ml by spectrophotometric analysis. The data set is classed as functional.
The nature of data set [5]: Antioxidant activity assessed as ferric ion reducing activity after 20 min by FRAP assay. The class given is functional.
In data set [6] the test system is Radical scavenging activity. The data set can be described thus: Antioxidant activity assessed as DPPH radical scavenging activity at 100 ug/ml by spectrophotometric analysis. The class given is functional.

As for `Cc1ccc(-c2cc(-c3c(-c4ccccc4)[nH]c4ccc(Cl)cc34)c3c(=O)[nH]cnc3n2)cc1`, the zone of inhibition at 500 µg/mL with Pseudomonas aeruginosa came to 5 mm; in the data set on Aspergillus terreus, 9 mm; in the data set on Aspergillus oryzae, 10 mm; in the data set on Aspergillus niger, 11 mm; with Escherichia coli, 10 mm; in the data set on Aspergillus flavus it was 8 mm. Besides, the zone of inhibition at 500 µg/mL in the data set with Klebsiella pneumoniae came out at 11 mm; in the data set on Staphylococcus aureus, 8 mm. Further, the Activity in [1] amounted to 61.5%.
As to `Nc1n[nH]c2nc(-c3ccc(Cl)cc3)cc(-c3c(-c4ccccc4)[nH]c4ccc(Cl)cc34)c12`, the zone of inhibition at 500 µg/mL in the data set on Pseudomonas aeruginosa came to 6 mm; in the data set with Aspergillus terreus it was 10 mm; with Aspergillus oryzae, 10 mm; with Aspergillus niger it was 6 mm; in the data set with Escherichia coli it was 10 mm; in the data set with Aspergillus flavus, 8 mm. Also, the values for the zone of inhibition at 500 µg/mL in the data set with Klebsiella pneumoniae and with Staphylococcus aureus were 11 mm and 10 mm, respectively. Further, the Activity in data set [2] turned out to be 73.5%.
Take `Nc1n[nH]c2nc(-c3ccc(Cl)cc3)cc(-c3c(-c4ccccc4)[nH]c4ccccc34)c12`: the zone of inhibition at 500 µg/mL in the data set on Pseudomonas aeruginosa came out at 8 mm; with Aspergillus terreus, 8 mm; in the data set on Aspergillus oryzae, 10 mm; in the data set with Aspergillus niger, 10 mm; with Escherichia coli, 10 mm; with Aspergillus flavus it was 11 mm. The zone of inhibition at 500 µg/mL was 10 mm in the data set with Klebsiella pneumoniae and 14 mm with Staphylococcus aureus. Also, the “inhibition (INH)” value in data set [3] is “Active”.
Take `Nc1ncnc2nc(-c3ccccc3)cc(-c3c(-c4ccccc4)[nH]c4ccc(Cl)cc34)c12`: the zone of inhibition at 500 µg/mL with Pseudomonas aeruginosa was determined as 8 mm; in the data set with Aspergillus terreus, 5 mm; in the data set on Aspergillus oryzae it was 10 mm; with Aspergillus niger it was 10 mm; in the data set on Escherichia coli, 9 mm; in the data set with Aspergillus flavus it was 8 mm. The zone of inhibition at 500 µg/mL stood at 5 mm in the data set with Klebsiella pneumoniae and 10 mm in the data set with Staphylococcus aureus. Besides, the Activity in [4] came out at 78%.
Turning to `Nc1n[nH]c2nc(-c3ccccc3)cc(-c3c(-c4ccccc4)[nH]c4ccccc34)c12`, the zone of inhibition at 500 µg/mL in the data set on Pseudomonas aeruginosa came to 11 mm; in the data set with Aspergillus terreus, 8 mm; with Aspergillus oryzae, 12 mm; in the data set on Aspergillus niger it was 10 mm; in the data set with Escherichia coli, 10 mm; with Aspergillus flavus it was 6 mm. For the same compound, the values for the zone of inhibition at 500 µg/mL in the data set with Klebsiella pneumoniae and with Staphylococcus aureus were 10 mm and 8 mm, respectively. For the same compound, in data set [4], the Activity came out at 75.5%.
`Cc1ccc2[nH]c(-c3ccccc3)c(-c3cc(-c4ccccc4)nc4[nH]nc(N)c34)c2c1`: the Activity entry was “Dose-dependent effect” in [5], 75.2% in data set [2] and 68.2% in [6]. The zone of inhibition at 500 µg/mL with Pseudomonas aeruginosa turned out to be 5 mm; in the data set on Aspergillus terreus it was 5 mm; in the data set on Aspergillus oryzae, 14 mm; in the data set with Aspergillus niger, 2 mm; with Escherichia coli, 8 mm; in the data set with Aspergillus flavus, 6 mm. For the same compound, the zone of inhibition at 500 µg/mL turned out to be 9 mm in the data set on Klebsiella pneumoniae and 10 mm in the data set with Staphylococcus aureus.
In the case of `O=c1[nH]cnc2nc(-c3ccccc3)cc(-c3c(-c4ccccc4)[nH]c4ccc(Cl)cc34)c12`, the zone of inhibition at 500 µg/mL in the data set on Pseudomonas aeruginosa was 8 mm; with Aspergillus terreus, 10 mm; in the data set with Aspergillus oryzae, 12 mm; in the data set with Aspergillus niger, 12 mm; in the data set on Escherichia coli it was 12 mm; in the data set on Aspergillus flavus it was 9 mm. Also, the zone of inhibition at 500 µg/mL with Klebsiella pneumoniae stood at 14 mm; in the data set on Staphylococcus aureus, 5 mm. Moreover, the Activity was 74.1% in data set [2] and 78.8% in data set [6].
As to `Cc1ccc(-c2cc(-c3c(-c4ccccc4)[nH]c4ccc(Cl)cc34)c3c(N)n[nH]c3n2)cc1`, the Activity entry in data set [5] was “Dose-dependent effect”. Moreover, the zone of inhibition at 500 µg/mL came out at 9 mm in the data set with Pseudomonas aeruginosa; 11 mm with Aspergillus terreus; 10 mm in the data set with Aspergillus oryzae; 8 mm with Aspergillus niger; 6 mm in the data set on Escherichia coli; 5 mm in the data set with Aspergillus flavus. Further, the zone of inhibition at 500 µg/mL was found to be 9 mm in the data set on Klebsiella pneumoniae and 10 mm in the data set on Staphylococcus aureus. Further, the “inhibition (INH)” value in data set [3] was “Active”.
Regarding `Nc1ncnc2nc(-c3ccc(Cl)cc3)cc(-c3c(-c4ccccc4)[nH]c4ccccc34)c12`, the zone of inhibition at 500 µg/mL in the data set on Pseudomonas aeruginosa was 2 mm; in the data set with Aspergillus terreus, 10 mm; in the data set with Aspergillus oryzae, 2 mm; in the data set with Aspergillus niger it was 10 mm; in the data set on Escherichia coli it was 8 mm; in the data set with Aspergillus flavus, 8 mm. In addition, the zone of inhibition at 500 µg/mL with Klebsiella pneumoniae came out at 5 mm; in the data set with Staphylococcus aureus it was 10 mm. The Activity in data set [1] was determined as 66.8%.
`O=c1[nH]cnc2nc(-c3ccc(Cl)cc3)cc(-c3c(-c4ccccc4)[nH]c4ccc(Cl)cc34)c12`: the zone of inhibition at 500 µg/mL in the data set on Pseudomonas aeruginosa came to 13 mm; in the data set on Aspergillus terreus, 8 mm; in the data set on Aspergillus oryzae it was 14 mm; with Aspergillus niger it was 10 mm; in the data set on Escherichia coli, 11 mm; in the data set on Aspergillus flavus it was 3 mm. Besides, the zone of inhibition at 500 µg/mL with Klebsiella pneumoniae and in the data set with Staphylococcus aureus was 11 mm each time. For the same compound, in [3], the “inhibition (INH)” value is “Active”.
As to `Cc1ccc(-c2cc(-c3c(-c4ccccc4)[nH]c4ccc(C)cc34)c3c(=O)[nH]cnc3n2)cc1`, the zone of inhibition at 500 µg/mL stood at 10 mm in the data set with Pseudomonas aeruginosa; 10 mm in the data set with Aspergillus terreus; 8 mm in the data set with Aspergillus oryzae; 10 mm in the data set on Aspergillus niger; 5 mm with Escherichia coli; 5 mm in the data set with Aspergillus flavus. The zone of inhibition at 500 µg/mL with Klebsiella pneumoniae came out at 12 mm; in the data set with Staphylococcus aureus it was 8 mm. The Activity in [1] is 74.4%.
As for `Cc1ccc2[nH]c(-c3ccccc3)c(-c3cc(-c4ccc(Cl)cc4)nc4nc[nH]c(=O)c34)c2c1`, the zone of inhibition at 500 µg/mL turned out to be 8 mm in the data set with Pseudomonas aeruginosa; 9 mm with Aspergillus terreus; 8 mm in the data set on Aspergillus oryzae; 11 mm in the data set on Aspergillus niger; 8 mm with Escherichia coli; 8 mm with Aspergillus flavus. The zone of inhibition at 500 µg/mL in the data set on Klebsiella pneumoniae is 6 mm; in the data set on Staphylococcus aureus, 9 mm. The Activity in [4] came out at 72.7%.
Consider `Cc1ccc(-c2cc(-c3c(-c4ccccc4)[nH]c4ccc(C)cc34)c3c(N)n[nH]c3n2)cc1`, for which the zone of inhibition at 500 µg/mL with Pseudomonas aeruginosa was found to be 6 mm; in the data set with Aspergillus terreus it was 9 mm; in the data set on Aspergillus oryzae, 3 mm; in the data set with Aspergillus niger, 10 mm; in the data set with Escherichia coli, 10 mm; in the data set with Aspergillus flavus, 11 mm. For the same compound, the zone of inhibition at 500 µg/mL with Klebsiella pneumoniae stood at 5 mm; with Staphylococcus aureus, 11 mm.
As to `O=c1[nH]cnc2nc(-c3ccccc3)cc(-c3c(-c4ccccc4)[nH]c4ccccc34)c12`, the zone of inhibition at 500 µg/mL was 10 mm in the data set with Pseudomonas aeruginosa; 8 mm in the data set on Aspergillus terreus; 10 mm in the data set on Aspergillus oryzae; 8 mm in the data set on Aspergillus niger; 10 mm with Escherichia coli; 11 mm in the data set with Aspergillus flavus. For the same compound, the figures for the zone of inhibition at 500 µg/mL in the data set with Klebsiella pneumoniae and in the data set on Staphylococcus aureus were 10 mm and 2 mm, respectively. For the same compound, in data set [3], the “inhibition (INH)” value is recorded as “Active”.
